Article PMC11740094, “Design and synthesis of cyclic lipidated peptides derived from the C-terminus of Cx43 for hemichannel inhibition and cardiac endothelium targeting” (RSC Medicinal Chemistry, 2024)
Where two headings read alike, the source gives them in different places. Residues, ends and D or L forms follow the SMILES beside them. *: point of attachment. Palmitoyl = CCCCCCCCCCCCCCCC(=O)*

Assays:
[1] = target: T1, Cx43 HCs (B16-BL6 cells endogenously expressing Cx43) (Mus musculus, UniProt P23242); test: ATP release assay in B16-BL6 cells, hemichannels opened by calcium depletion; assay type: cell-based, murine
T1 construct: a murine melanoma cell line endogenously expressing Cx43; endogenous in cells; host or cells: B16-BL6 mouse melanoma cells
Description: The inhibitory capacity of the peptides on connexin HC activity was determined in vitro by measuring ATP release triggered by a depletion of extracellular Ca^2+, hereafter called “calcium-free” condition.[60] The assays were performed on B16-BL6 cells, a murine melanoma cell line endogenously expressing Cx43.[61] To measure ATP release, B16-BL6 cells were rinsed with a physiological Hanks' balanced salt solution (HBSS; control) followed by incubation for 5 minutes in HBSS containing the peptides. After rinsing with calcium-free HBSS (Ca-free), the cells were incubated with Ca-free containing the peptides for 30 minutes. Positive and negative control conditions included 30 minute incubation with HBSS, Ca-free without peptides or Ca-free containing 25 μM of the non-selective small-molecule inhibitor Cbx. ATP release in the supernatant was measured by bioluminescence. In order to determine the optimal concentration of peptides to be used in the assays, an initial round of testing was conducted on the control peptides αCT1, Gap27,[62]Gap19 (ref. [15]) and TAT-Gap19 (ref. [15]) as well as Cbx.[63] A doubling of ATP release was observed 30 minutes after the switch to the calcium-free solution, indicating effective Cx43 HC channel opening under these conditions (Fig. 5a and Table S1 ^†). As expected, the nonspecific connexin HC inhibitor Cbx (25 μM) reduced calcium-free-induced ATP release to nearly control conditions. At a high concentration (100 μM), Gap19, Gap27 and αCT1 had minimal to no effect on ATP release while TAT-Gap19 had the opposite effect inducing the release of ATP to a similar extent as the detergent Triton X-100 (1%). This might be due to the presence of the CPP motif, causing some disturbance at the level of the cellular membrane, and correlated with the previous findings on the use of the peptide at high concentrations.[64,65] […]
ATP release assays were performed using previously described methods.[60] […] ATP release under each condition was expressed as the percentage of calcium-free-induced ATP release. […]

[2] = test system: parental HeLa cells (no endogenous connexins); test: ATP release assay in parental HeLa cells (selectivity); assay type: cell-based, human; conditions: calcium-free conditions, N = 3
Description: (§1) Two cell types were chosen to assess the specificity of the Cx43 analogues. HeLa cells derived from human cervical cancer are the oldest and most commonly used immortalized cells. These cells are so-called communication-incompetent, i.e. known to not endogenously express connexins,[71] while SK-HEP-1 cells, a human liver sinusoid endothelial cell line, are devoid of Cx43 but express a small amount of Cx45.[72] Together with these parental cells, HeLa cells and SK-HEP-1 cells stably transfected with Cx43 were used (HeLa–Cx43 (ref. [73]) and SK-HEP-1–Cx43,[72] respectively). The presence and absence of Cx43 in the different cell lines were confirmed by Western blotting (Fig. 8a). The specificity of the control peptides Gap27, TAT-Gap19, αCT1 as well as the cyclic analogue 11 for Cx43 HCs was assessed through ATP release measurements in these pairs of cells, and is shown in Fig. 8b (and Table S4 ^†) for parental and HeLa–Cx43 cells and in Fig. 8c (and Table S5 ^†) for parental and SK-HEP-1–Cx43 cells. No induction of ATP release was observed when parental HeLa cells were exposed to calcium-free conditions. […] However, a doubling of ATP release was observed when parental SK-HEP-1 cells were exposed to calcium-free conditions, which was attenuated by the treatment with Cbx and all peptides, indicating an effect of the compounds on Cx45 HC. […] Nonetheless, the cardioprotective properties of αCT1 are generally ascribed to its interaction with the Cx43 protein,[23] thus it is reasonable to assume that these properties will be retained by the proteolytically stable 10 peptide.
(§2) ATP release assays were performed using previously described methods.[60] Briefly, B16-BL6 cells, HeLa cells or SK-HEP-1 cells were seeded into 96-well plates and grown until they reached confluence. […] The cells were then washed with calcium-free HBSS and incubated with aforementioned compounds in calcium-free HBSS for 30 minutes. Supernatants were collected and ATP bioluminescence measurements were performed using an ATP bioluminescence kit (Sigma-Aldrich) according to the manufacturer's instructions. ATP release under each condition was expressed as the percentage of calcium-free-induced ATP release. ATP release of cells incubated with HBSS was used as a control for basal ATP release. Triplicates were performed for each independent experiment.

[3] = target: T2, Cx43 HCs (HeLa–Cx43 cells) (Homo sapiens, UniProt P17302); test: ATP release assay in HeLa–Cx43 transfectants (selectivity); assay type: cell-based; conditions: for ATP release, mean (Table S4, Fig. 8b), HeLa-Cx43: calcium-free conditions, N = 3
T2 construct: expressed in transfected cells
Description: as §1, §2

[4] = target: T3, Cx45 HC (parental SK-HEP-1 cells, devoid of Cx43) (Homo sapiens, UniProt P36383); test: ATP release assay in parental SK-HEP-1 cells (selectivity); assay type: cell-based; conditions: calcium-free conditions, N = 3
T3 construct: are devoid of Cx43 but express a small amount of Cx45; endogenous in cells; host or cells: parental SK-HEP-1 cells
Description: as §1, §2

[5] = test system: Cx43 HCs (SK-HEP-1–Cx43 cells); test: ATP release assay in SK-HEP-1–Cx43 transfectants (selectivity); assay type: cell-based, human; conditions: calcium-free conditions, N = 3
Description: as §1, §2

Cx43 HC = conditions: cited from earlier work
Description: The inhibitory capacity of the peptides on connexin HC activity was determined in vitro by measuring ATP release triggered by a depletion of extracellular Ca^2+, hereafter called “calcium-free” condition.[60] The assays were performed on B16-BL6 cells, a murine melanoma cell line endogenously expressing Cx43.[61] To measure ATP release, B16-BL6 cells were rinsed with a physiological Hanks' balanced salt solution (HBSS; control) followed by incubation for 5 minutes in HBSS containing the peptides. After rinsing with calcium-free HBSS (Ca-free), the cells were incubated with Ca-free containing t ...

physchem = assay type: physicochemical; conditions: water
cardiac endothelium = conditions: binding to markers on the cell surface of the cardiac endothelium; cited from earlier work
Description: To further increase the therapeutic potential of a drug candidate, targeted delivery to the organ or tissue of interest after systemic treatment is highly desirable. The use of homing peptides, i.e. peptides that selectively bind to markers expressed on the surface of different cell types, can increase the specificity and efficacy of drug delivery, while reducing the side effects linked to off-target interactions. A wide variety of peptides homing to different tissues and pathological conditions has been identified, mostly through phage-display techniques, and used as delivery vehicles for dru ...

[6] = design: method as in PMID 34063001; conditions: mouse serum; cited from earlier work
[7] = peptide applied extracellularly, read-out: IC50 on Cx43-mediated ATP release

T1 sequence (P23242 whole entry): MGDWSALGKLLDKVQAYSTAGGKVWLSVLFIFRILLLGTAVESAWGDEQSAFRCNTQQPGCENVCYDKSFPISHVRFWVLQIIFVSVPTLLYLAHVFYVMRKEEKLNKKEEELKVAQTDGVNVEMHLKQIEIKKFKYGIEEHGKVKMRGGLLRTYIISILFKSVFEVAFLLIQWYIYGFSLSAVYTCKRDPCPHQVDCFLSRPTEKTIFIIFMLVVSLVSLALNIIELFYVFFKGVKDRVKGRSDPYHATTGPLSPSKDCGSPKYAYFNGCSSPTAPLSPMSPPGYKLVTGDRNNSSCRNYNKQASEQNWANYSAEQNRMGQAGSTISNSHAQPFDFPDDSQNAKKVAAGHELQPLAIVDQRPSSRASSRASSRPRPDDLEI
T2 sequence (P17302 whole entry): as the sequence (P23242 whole entry) above, with E124D, V164I, R243K, T251S, P253A, S257A, P263Q, S341N, A344S, V347L counted along it
T3 sequence (P36383 whole entry): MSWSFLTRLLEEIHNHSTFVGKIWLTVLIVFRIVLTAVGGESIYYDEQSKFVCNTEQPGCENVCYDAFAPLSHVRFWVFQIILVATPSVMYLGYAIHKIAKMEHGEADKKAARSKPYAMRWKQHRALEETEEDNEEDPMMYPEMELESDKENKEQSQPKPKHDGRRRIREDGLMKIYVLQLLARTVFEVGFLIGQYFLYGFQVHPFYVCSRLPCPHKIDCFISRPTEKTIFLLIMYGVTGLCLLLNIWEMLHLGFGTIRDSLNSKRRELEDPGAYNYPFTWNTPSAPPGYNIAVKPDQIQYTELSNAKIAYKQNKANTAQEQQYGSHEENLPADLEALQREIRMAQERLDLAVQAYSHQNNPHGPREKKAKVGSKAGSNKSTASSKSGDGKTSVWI

Compound	reduction of calcium-free-induced ATP release in HeLa–Cx43 cells ([3]; peptide 5 μM)	ATP release, mean (Table S4, Fig. 8b), HeLa-Cx43 ([3]; peptide 5 μM)	ATP release, mean (Table S5, Fig. 8c), Parental SK-HEP-1 ([4]; peptide 5 μM)	ATP release, mean (Table S4, Fig. 8b), Parental HeLa ([2]; peptide 5 μM)	ATP release, mean (Table S5, Fig. 8c), SK-HEP-1-Cx43 ([5]; peptide 5 μM)	also measured
CC1(C)[C@@H](OC(=O)CCC(=O)O)CC[C@]2(C)[C@H]3C(=O)C=C4[C@@H]5C[C@@](C)(C(=O)O)CC[C@]5(C)CC[C@@]4(C)[C@]3(C)CC[C@@H]12 [Cbx, carbenoxolone]						ATP release, mean normalized to calcium-free condition (Table S2, Fig. 5b) ([1]; Cbx 25 μM, calcium-free 30 min, N = 3–9): 60.4766%; ATP release, mean normalized to calcium-free condition (Table S3, Fig. 6b) ([1]; Cbx 25 μM, calcium-free 30 min, N = 5–10): 78.1965%; ATP release, mean (Table S4, Fig. 8b), Parental HeLa ([2]; Cbx 25 μM): 0.9207 nM; inhibition of calcium-free-induced ATP release in HeLa–Cx43 cells (in words) ([3]; Cbx 25 μM): completely inhibited; ATP release, mean (Table S4, Fig. 8b), HeLa-Cx43 ([3]; Cbx 25 μM): 2.1867 nM; ATP release, mean (Table S5, Fig. 8c), Parental SK-HEP-1 ([4]; Cbx 25 μM): 13.9931 nM; ATP release, mean (Table S5, Fig. 8c), SK-HEP-1-Cx43 ([5]; Cbx 25 μM): 26.4826 nM
CC[C@H](C)[C@H](NC(=O)[C@H](CCC(=O)O)NC(=O)[C@@H](NC(=O)[C@H](CCC(N)=O)NC(=O)[C@@H](N)CCCCN)[C@@H](C)CC)C(=O)N[C@@H](CCCCN)C(=O)N[C@@H](CCCCN)C(=O)N[C@@H](Cc1ccccc1)C(=O)N[C@@H](CCCCN)C(=O)O [Gap19, H-KQIEIKKFK-OH] (H-KQIEIKKFK-OH)						IC50 (Cx43 HC; intracellular application via whole-cell recording pipette, read-out: IC50 when applied intracellularly via a whole-cell recording pipette): 7 µM; IC50 (Cx43 HC; [7]): ~50 µM
CCCCCCCCCCCCCCCC(=O)N[C@@H](CCCCN)C(=O)N[C@@H](CCC(N)=O)C(=O)N[C@H](C(=O)N[C@@H](CCC(=O)O)C(=O)N[C@H](C(=O)N[C@@H](CCCCN)C(=O)N[C@@H](CCCCN)C(=O)N[C@@H](Cc1ccccc1)C(=O)N[C@@H](CCCCN)C(=O)O)[C@@H](C)CC)[C@@H](C)CC [Palm-Gap19] (Palmitoyl-KQIEIKKFK-OH)						solubility (physchem): ≥ 100 µM
CC[C@H](C)[C@H](NC(=O)[C@H](CCC(=O)O)NC(=O)[C@@H](NC(=O)[C@H](CCC(N)=O)NC(=O)[C@H](CCCCN)NC(=O)[C@H](CCCNC(=N)N)NC(=O)[C@H](CCCNC(=N)N)NC(=O)[C@H](CCCNC(=N)N)NC(=O)[C@H](CCC(N)=O)NC(=O)[C@H](CCCNC(=N)N)NC(=O)[C@H](CCCNC(=N)N)NC(=O)[C@H](CCCCN)NC(=O)[C@H](CCCCN)NC(=O)[C@H](CCCNC(=N)N)NC(=O)CNC(=O)[C@@H](N)Cc1ccc(O)cc1)[C@@H](C)CC)C(=O)N[C@@H](CCCCN)C(=O)N[C@@H](CCCCN)C(=O)N[C@@H](Cc1ccccc1)C(=O)N[C@@H](CCCCN)C(=O)O [TAT-Gap19] (H-YGRKKRRQRRRKQIEIKKFK-OH)	40–45%	10.9629 nM	15.3639 nM	1.3701 nM	55.5511 nM	IC50 (Cx43 HC; [7]): 7 µM
CRPPR [cardiac endothelium-homing pentapeptide]						selectivity of targeting the heart (cardiac endothelium): > 300 fold
H-RPRPDDLEI-OH [αCT11]						time in which the peptide was found to be degraded [6]: 30 min
Triton X-100						ATP release, mean normalized to calcium-free condition (Table S1, Fig. 5a) ([1]; Triton X-100 1%, cell lysis control, N = 3–9): 248.6069%

Continued, in another order:

reduction of calcium-free-induced ATP release in HeLa–Cx43 cells ([3]; peptide 5 μM)	ATP release, mean (Table S4, Fig. 8b), HeLa-Cx43 ([3]; peptide 5 μM)	ATP release, mean (Table S5, Fig. 8c), Parental SK-HEP-1 ([4]; peptide 5 μM)	Compound	ATP release, mean (Table S4, Fig. 8b), Parental HeLa ([2]; peptide 5 μM)	ATP release, mean (Table S5, Fig. 8c), SK-HEP-1-Cx43 ([5]; peptide 5 μM)	also measured
40–45%	9.3690 nM	8.5784 nM	CC[C@H](C)[C@H](NC(=O)[C@@H](NC(=O)[C@H](Cc1ccccc1)NC(=O)[C@@H](NC(=O)[C@@H](NC(=O)[C@H](CCCCN)NC(=O)[C@H](CCC(=O)O)NC(=O)[C@@H](NC(=O)[C@@H]1CCCN1C(=O)[C@H](CCCNC(=N)N)NC(=O)[C@@H](N)CO)[C@@H](C)O)[C@@H](C)O)[C@@H](C)CC)[C@@H](C)CC)C(=O)O [Gap27] (H-SRPTEKTIFII-OH)	0.9529 nM	36.9304 nM	
40–45%	8.7419 nM	7.9522 nM	CC(=O)N[C@@H](CO)C(=O)N[C@@H](CCCNC(=N)N)C(=O)N1CCC[C@H]1C(=O)N[C@@H](CCCNC(=N)N)C(=O)N1C[C@@H]2C[C@H]1C(=O)N[C@@H](CC(=O)O)C(=O)N[C@@H](CC(=O)O)C(=O)N[C@@H](CC(C)C)C(=O)N[C@@H](CCC(=O)O)C(=O)N[C@H](C(N)=O)Cc1cn2nn1 [compound 11]	1.5371 nM	38.4712 nM	
40–45%	9.6282 nM	6.6804 nM	H-RQPKIWFPNRRKPWKKRPRPDDLEI-OH [αCT1]	1.6218 nM	39.5655 nM	
